Experimental data: patent EP0887339A1, “Azulene derivatives and medicaments containing them” (BOEHRINGER MANNHEIM GMBH, priority 1997, dated 1998)

Target: TNF-α
Assay: Inhibition of TNFα in culture supernatant of LPS-stimulated peripheral human leukocytes, TNFα-specific enzyme immunoassay
Type: cell-based
Conditions: Periphere humane Leukozyten, LPS über 22 Std., Kulturüberstand
Text: […] humane Leukozyten werden mit LPS über 22 Std. inkubiert. Der Kulturüberstand wird mit einem TNFα spezifischen Enzym-Immuno-Assay untersucht. Durch Vergleich der für die Messproben erhaltenen TNFα-Konzentrationen mit den ungehemmten Proben wird die prozentuale Hemmung fiir die einzelne Probe berechnet. Aus der […]. Der IC50-Wert läßt sich wie folgt ermitteln: v = v0 /(1 + [I] / IC50 ) [formula] • v = […]0 = […] ohne Inhibitor • [I] = […] IC50-Werte, der in den Beispielen beschriebenen Substanzen gegen TNF-α finden sich in der folgenden Tabelle:

IC50 [nM]	SMILES
2800	CC(C)(C)OC(=O)c1c2cccccc-2c(C(=O)OC(C)(C)C)c1N [Beispiel 7, 2-Amino-azulen-1,3-dicarbonsäure-di-tert-butylester]
500	CC(=O)N(C(C)=O)c1c(C(=O)OC(C)(C)C)c2ccc(Br)ccc-2c1C(=O)OC(C)(C)C [Beispiel 10, 2-Diacetylamino-6-bromo-azulen-1,3-dicarbonsäure-di-tert-butylester]
20	CCOC(=O)c1c2ccc(CC(=O)NO)ccc-2c(C(=O)OCC)c1NC(C)=O [Beispiel 5, 2-Acetylamino-6-hydroxycarbamoylmethyl-azulen-1,3-dicarbonsäurediethylester]
160	CCOC(=O)c1c2ccc(CC(=O)O)ccc-2c(C(=O)OCC)c1N [Beispiel 1, 2-Amino-6-carboxylmethyl-azulen-1,3-dicarbonsäurediethylester]
8000	CCOC(=O)c1c2cccccc-2c(C(=O)OC(C)(C)C)c1N [Beispiel 8, 2-Amino-azulen-1,3-dicarbonsäure-tert-butyl-ethylester]
1	CCOC(=O)c1c2ccc(CC(=O)NO)ccc-2c(C(=O)OCC)c1N [Beispiel 3, 2-Amino-6-hydroxycarbamoylmethyl-azulen-1,3-dicarbonsäurediethylester]
15000	CCOC(=O)c1c2ccc(C(C(=O)NC(N)=O)C(=O)OCC)ccc-2c(C(=O)OCC)c1N (centres unmarked) [Beispiel 6, 2-Amino-6-(1-ethoxycarbonyl-2-oxo-2-ureido-ethyl)-azulen-1,3-dicarbonsäurediethylester]
10500	CCOC(=O)c1c2ccc(CC(=O)O)ccc-2c(C(=O)O)c1N [Beispiel 2, 2-Amino-6-carboxylmethyl-azulen-1,3-dicarbonsäuremonoethylester]
2300	CC(C)(C)OC(=O)c1c2ccc(Br)ccc-2c(C(=O)OC(C)(C)C)c1N [Beispiel 9, 2-Amino-6-bromo-azulen-1,3-dicarbonsäure-di-tert-butylester]
4100	CCOC(=O)c1c2ccc(CC(=O)O)ccc-2c(C(=O)OCC)c1NC(C)=O [Beispiel 4, 2-Acetylamino-6-carboxymethyl-azulen-1,3-dicarbonsäurediethylester]

SMILES	IC50 [nM]
CC(=O)N(C(C)=O)c1c(C(=O)OC(C)(C)C)c2ccc(C(C(=O)OC(C)(C)C)C(=O)OC(C)(C)C)ccc-2c1C(=O)OC(C)(C)C [Beispiel 11, 6-(Bis-tert-butoxycarbonyl-methyl)-2-diacetylamino-azulene-1,3-dicarbonsäure-di-tert-butylester]	4200
